Reference: publication PMC11460632, “Chemical modification of hyaluronan oligosaccharides differentially modulates hyaluronan–hyaladherin interactions” (The Journal of Biological Chemistry, 2024)
Like-named read-outs stand apart in the source and are kept apart here.

Legend:
[1] = molecular target: T1, Link_TSG6 (Homo sapiens, UniProt P98066); assay: ITC of HA oligosaccharides binding to Link_TSG6; details: for N / ΔG / ΔH / −TΔS / Kd: 25 °C, 5 mM MES pH 6.0, mean ± SEM; for N: 0.029 mM Link_TSG6, 0.29 mM oligosaccharide; for N / Kd: four titrations; for Kd: read-out: KD; for % Binding affinity Link_TSG6: Table 6, relative to unmodified oligosaccharide of the same length, by ITC
T1 construct: made in house
T1 sequence (P98066 36-129 limits assumed): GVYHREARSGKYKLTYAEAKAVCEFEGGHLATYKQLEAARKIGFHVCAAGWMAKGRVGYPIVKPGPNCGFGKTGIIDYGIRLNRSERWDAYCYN
Description: ITC experiments were performed using a MicroCal PEAQ-ITC instrument (Malvern Instruments). Oligosaccharide stock solutions were prepared at 0.29 mM (in 5 mM MES, pH 6.0) and injected (18 × 2 μl with 120 s spacing between injections) into the cell containing ∼200 μl Link_TSG6 (0.029 mM) in matched buffer at 25 °C. Data were fit to a one site binding model, after subtracting the heats from the last three injections to account for heat of dilution of the oligosaccharide into buffer. Each oligosaccharide was analyzed in four independently performed ITC experiments.

[2] = molecular target: T2, hisCD44_HABD^20–169 (Homo sapiens, UniProt P16070); assay: MST of HA oligosaccharides binding to hisCD44_HABD^20–169; details: for % Binding affinity hisCD44_HABD^20–169: Table 6, relative to unmodified oligosaccharide of the same length, by MST
T2 construct: A novel construct consisting of residues 20 to 169 of human CD44 and an N-terminal six-histidine tag; made in house
T2 sequence (P16070 20-169): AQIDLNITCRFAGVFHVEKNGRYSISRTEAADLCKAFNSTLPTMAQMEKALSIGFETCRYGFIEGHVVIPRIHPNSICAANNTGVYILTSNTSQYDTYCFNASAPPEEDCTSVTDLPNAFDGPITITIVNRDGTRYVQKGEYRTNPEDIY
Description: For hisCD44_HABD^20–169, interactions with HA oligosaccharides were assessed using MST. Protein (200 nM) was labeled with 5 μM red-Tris-NTA-650 dye following the manufacturer’s instructions in 10 mM Hepes, pH 7.4, 150 mM NaCl, 0.05% (v/v) Tween-20 (interaction buffer). Stock solutions of HA oligosaccharides (5 mM in interaction buffer) were serially diluted (1:1 in interaction buffer) 16 times before each concentration was mixed with an equal volume of labeled protein (10 nM final concentration hisCD44_HABD^20–169). Samples were loaded into standard glass capillaries (NanoTemper) and thermophoresis measured at 25 °C (with active temperature control) using a Monolith NT.115pico instrument (NanoTemper) running NT Control software (version 1.0.1). All experiments were performed in triplicate and data analyzed with the “KD fit model” in the NT Analysis software (version 2.0.2).

[3] = molecular target: T3, recombinant human TSG-6 (Homo sapiens, UniProt P19827+P98066); assay: In vitro HC-transfer assay (IαI + rhTSG-6, Western blot anti-HC1); assay type: biochemical; details: 15 μM HA, 1.8 μM IαI, rhTSG-6, 2 h at 37 °C; for Substrate for HC transfer: Table 6
T3 construct: TSG-6–mediated HC-transfer assays (using full-length TSG6); purchased R&D Systems
T3 sequence (P98066 18-277): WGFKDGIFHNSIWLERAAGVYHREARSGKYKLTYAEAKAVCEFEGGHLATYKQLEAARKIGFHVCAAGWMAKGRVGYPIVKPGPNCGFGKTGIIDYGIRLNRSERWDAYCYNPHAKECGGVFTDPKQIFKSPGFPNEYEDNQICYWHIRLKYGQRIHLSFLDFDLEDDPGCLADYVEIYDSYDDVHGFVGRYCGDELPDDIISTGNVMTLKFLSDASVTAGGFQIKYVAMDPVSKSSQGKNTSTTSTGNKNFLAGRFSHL
T3 sequence (P19827 35-672 limits assumed): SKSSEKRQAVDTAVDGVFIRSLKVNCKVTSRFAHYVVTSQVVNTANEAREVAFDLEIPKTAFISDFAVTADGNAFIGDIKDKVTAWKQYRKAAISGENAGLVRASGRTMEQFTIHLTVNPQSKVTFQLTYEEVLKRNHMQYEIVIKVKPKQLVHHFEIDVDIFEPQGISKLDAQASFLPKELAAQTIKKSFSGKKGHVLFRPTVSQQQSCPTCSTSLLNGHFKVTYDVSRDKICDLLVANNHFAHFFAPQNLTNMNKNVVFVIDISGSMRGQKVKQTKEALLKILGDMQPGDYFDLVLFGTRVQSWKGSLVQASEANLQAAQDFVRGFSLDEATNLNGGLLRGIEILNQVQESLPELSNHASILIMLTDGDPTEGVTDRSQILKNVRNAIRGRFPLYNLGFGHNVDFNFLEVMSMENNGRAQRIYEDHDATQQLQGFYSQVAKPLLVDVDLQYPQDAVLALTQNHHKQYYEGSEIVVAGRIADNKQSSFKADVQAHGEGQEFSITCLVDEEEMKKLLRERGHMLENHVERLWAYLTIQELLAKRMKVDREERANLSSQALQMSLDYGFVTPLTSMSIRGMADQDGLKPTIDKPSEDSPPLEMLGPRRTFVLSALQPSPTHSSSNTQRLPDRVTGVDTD
Description: Covalent transfer of HC from IαI onto unmodified and chemically modified HA oligosaccharides was analyzed using the assay described previously ([26]). All reactions were performed using a buffer of 20 mM Hepes, pH 7.5, 150 mM NaCl, and 5 mM MgCl2. In a “standard” assay, HA oligosaccharides were at 15 μM, human IαI ([97]) 1.8 at μM (based on a molecular weight of 180 kDa), and recombinant human TSG-6 (R&D Systems) at 2.8 μM (based on a molecular weight of 35 kDa). Reaction mixtures were analyzed by SDS-PAGE using 4 to 12% bis-tris polyacrylamide gels (Invitrogen). For Western blot analysis, proteins were transferred onto nitrocellulose membrane (GE Healthcare) and incubated with antisera against HC1 (CP7, 1:10,000; ([98])). Bound primary antibody was detected using goat-anti-rabbit IgG conjugated to IR dye (LI-COR Biosciences) and blots imaged using an Odyssey Clx near-IR fluorescence imaging system (LICOR Biosciences).

[4] = tested on: Link_TSG6; design: method as in PMID 24403066; details: cited from earlier work
[5] = Table 5, MST, 10 mM Hepes pH 7.5, 150 mM NaCl, 0.05% Tween-20, 25 °C, mean ± SD, three titrations, read-out: KD

CC(=O)N[C@H]1[C@H](O[C@H]2[C@H](O)[C@@H](O)[C@H](O[C@H]3[C@H](O)[C@@H](CO)O[C@@H](O[C@H]4[C@H](O)[C@@H](O)[C@H](O[C@H]5[C@H](O)[C@@H](CO)O[C@@H](O[C@H]6[C@H](O)[C@@H](O)[C@H](O[C@@H]([C@H](O)[C@H](O)CO)[C@H](CNc7cccc8c7CCC8)NC(C)=O)O[C@@H]6C(=O)O)[C@@H]5NC(C)=O)O[C@@H]4C(=O)O)[C@@H]3NC(C)=O)O[C@@H]2C(=O)O)O[C@H](CO)[C@@H](O)[C@@H]1O[C@@H]1O[C@H](C(=O)O)[C@@H](O)[C@H](O)[C@H]1O [HA8-4AI]
N ([1]; Table 4, ITC): 1.01 ± 0.02
ΔG ([1]; Table 4, ITC): -9.15 ± 0.16 kcal/mol
ΔH ([1]; Table 4, ITC): -7.02 ± 0.40 kcal/mol
−TΔS ([1]; Table 4, ITC): −2.13 ± 0.53 kcal•mol^a1
Kd ([1]; Table 4, ITC): 0.22 ± 0.05 µM
% Binding affinity Link_TSG6 [1]: 141%
% of binding to hisCD44_HABD^20–169 compared to the unmodified oligosaccharide of the same length ([2]; MST): 37%
% HAx^AN: percentage of binding affinity (KB) compared to the unmodified oligosaccharide of the same length ([2]; Table 5, MST): 37%
Kd [2, 5]: 139 ± 43 µM
% Binding affinity hisCD44_HABD^20–169 [2]: 37%
Substrate for HC transfer [3]: Yes

CC(=O)N[C@H]1[C@H](O[C@H]2[C@H](O)[C@@H](O)[C@H](O[C@H]3[C@H](O)[C@@H](CO)O[C@@H](O[C@H]4[C@H](O)[C@@H](O)[C@H](O[C@H]5[C@H](O)[C@@H](CO)O[C@@H](O[C@H]6[C@H](O)[C@@H](O)[C@H](O[C@@H]([C@H](O)[C@H](O)CO)[C@H](CNc7ccc8c(c7)CCC8)NC(C)=O)O[C@@H]6C(=O)O)[C@@H]5NC(C)=O)O[C@@H]4C(=O)O)[C@@H]3NC(C)=O)O[C@@H]2C(=O)O)O[C@H](CO)[C@@H](O)[C@@H]1O[C@@H]1O[C@H](C(=O)O)[C@@H](O)[C@H](O)[C@H]1O [HA8-5AI]
% of binding to Link_TSG6 compared to the unmodified oligosaccharide of the same length ([1]; ITC): 207%
N ([1]; Table 4, ITC): 0.97 ± 0.02
ΔG ([1]; Table 4, ITC): -9.34 ± 0.11 kcal/mol
ΔH ([1]; Table 4, ITC): -7.43 ± 0.25 kcal/mol
−TΔS ([1]; Table 4, ITC): −1.91 ± 0.33 kcal•mol^a1
Kd ([1]; Table 4, ITC): 0.15 ± 0.03 µM
% Binding affinity Link_TSG6 [1]: 207%
% of binding to hisCD44_HABD^20–169 compared to the unmodified oligosaccharide of the same length ([2]; MST): 96%
% HAx^AN: percentage of binding affinity (KB) compared to the unmodified oligosaccharide of the same length ([2]; Table 5, MST): 96%
Kd [2, 5]: 54 ± 10 µM
% Binding affinity hisCD44_HABD^20–169 [2]: 96%
Substrate for HC transfer [3]: Yes

CC(=O)N[C@H]1[C@H](O[C@H]2[C@H](O)[C@@H](O)[C@H](O[C@H]3[C@H](O)[C@@H](CO)O[C@@H](O[C@H]4[C@H](O)[C@@H](O)[C@H](O[C@H]5[C@H](O)[C@@H](CO)O[C@@H](O[C@H]6[C@H](O)[C@@H](O)[C@H](O[C@H]7[C@H](O)[C@@H](CO)OC(O)[C@@H]7NC(C)=O)O[C@@H]6C(=O)O)[C@@H]5NC(C)=O)O[C@@H]4C(=O)O)[C@@H]3NC(C)=O)O[C@@H]2C(=O)O)O[C@H](CO)[C@@H](O)[C@@H]1O[C@@H]1O[C@H](C(=O)O)[C@@H](O)[C@H](O)[C@H]1O (stereo partly drawn) [HA8^AN, reference compound]
N ([1]; Table 1, ITC): 0.98 ± 0.01
ΔG ([1]; Table 1, ITC): -8.89 ± 0.03 kcal/mol
ΔH ([1]; Table 1, ITC): -7.26 ± 0.20 kcal/mol
−TΔS ([1]; Table 1, ITC): -1.63 ± 0.24 kcal/mol
Kd ([1]; Table 1, ITC): 0.31 ± 0.02 µM
−TΔS ([1]; Table 4, ITC): −1.63 ± 0.24 kcal•mol^a1
% Binding affinity Link_TSG6 [1]: 100%
Kd ([2]; MST, read-out: KD for hisCD44_HABD^20–169): ~50 µM
% HAn^AN: percentage of binding affinity (KB) compared to the unmodified oligosaccharide of the same length ([2]; Table 2, MST): 100%
Kd ([2]; Table 2, MST, 10 mM Hepes pH 7.5, 150 mM NaCl, 0.05% Tween-20, 25 °C, mean (±SD), three titrations, read-out: KD): 51 µM
% HAx^AN: percentage of binding affinity (KB) compared to the unmodified oligosaccharide of the same length ([2]; Table 5, MST): 100%
Kd [2, 5]: 51 ± 5 µM
% Binding affinity hisCD44_HABD^20–169 [2]: 100%
Substrate for HC transfer [3]: Yes
Activity as substrate for HC transfer (text) ([3]; Western blot anti-HC1): acted as substrates
Fold greater affinity for Link_TSG6 (compared to HA8^AN) [4]: 1.9 fold
